Measured values taken from PubChem BioAssay (NCI).
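Each compound was tested at five concentrations against cells in 96-well plates for 48 hours. The concentration for full growth arrest is given as TGI.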

Columns and labels:
Test in all cases: NCI anticancer screen, dose series, 48 h
[1] = tested on: PC-3 prostate
[2] = tested on: HS 578T breast
[3] = tested on: MDA-N
[4] = tested on: MDA-MB-435
[5] = tested on: 786-0 renal
[6] = tested on: OVCAR-5 ovarian
[7] = tested on: SK-MEL-2 melanoma
[8] = tested on: CCRF-CEM leukemia
[9] = tested on: A498 renal
[10] = tested on: NCI-H460 lung
[11] = tested on: OVCAR-4 ovarian
[12] = tested on: SNB-19 CNS
[13] = tested on: LOX IMVI melanoma
[14] = tested on: SW-620 colon
[15] = tested on: MCF7 breast
[16] = tested on: HL-60(TB) leukemia
[17] = tested on: CAKI-1 renal
[18] = tested on: UACC-257 melanoma
[19] = tested on: SNB-75 CNS
[20] = tested on: NCI-H522 lung
[21] = tested on: SR leukemia
[22] = tested on: HCT-116 colon
[23] = tested on: RXF 393 renal
[24] = tested on: T-47D breast
[25] = tested on: HCC-2998 colon
[26] = tested on: HCT-15 colon
[27] = tested on: TK-10 renal
[28] = tested on: OVCAR-3 ovarian
[29] = tested on: NCI-H23 lung
[30] = tested on: ACHN renal
[31] = tested on: K-562 leukemia
[32] = tested on: SF-268 CNS
[33] = tested on: BT-549 breast
[34] = tested on: SF-295 CNS
[35] = tested on: HOP-62 NSCLC
[36] = tested on: SK-MEL-5 melanoma
[37] = tested on: SK-OV-3 ovarian
[38] = tested on: SF-539 CNS
[39] = tested on: KM12 colon
[40] = tested on: COLO 205 colon
[41] = tested on: UO-31 renal
[42] = tested on: MDA-MB-231 breast
[43] = tested on: HOP-92 NSCLC
[44] = tested on: M14 melanoma
[45] = tested on: SN12C renal
[46] = tested on: U251 CNS
[47] = tested on: NCI/ADR-RES ovarian
[48] = tested on: DU-145 prostate
[49] = tested on: UACC-62 melanoma
[50] = tested on: OVCAR-8 ovarian
[51] = tested on: MOLT-4 leukemia
[52] = tested on: SK-MEL-28 melanoma
[53] = tested on: IGROV1 ovarian
[54] = tested on: MALME-3M melanoma
[55] = tested on: A549 NSCLC
[56] = tested on: NCI-H226 lung
[57] = tested on: HT29 colon

CC1OC(O[C@H]2CC[C@]3(C)[C@H]4CC=C5[C@@H]6[C@@H](C)[C@H](C)CC[C@]6(C(=O)OC6OC(CO)C(O)C(O)C6O)CC[C@@]5(C(=O)O)[C@]4(C)CC[C@H]3C2(C)C)C(O)C(O)C1O (some centres not stated)
TGI [1]: > 100 µM
TGI [2]: > 100 µM
TGI [3]: > 100 µM
TGI [4]: > 100 µM
TGI [5]: > 100 µM
TGI [6]: > 100 µM
TGI [7]: > 100 µM
TGI [8]: > 100 µM
TGI [9]: > 100 µM
TGI [10]: > 100 µM
TGI [11]: > 100 µM
TGI [12]: > 100 µM
TGI [13]: > 100 µM
TGI [14]: > 100 µM
TGI [15]: > 100 µM
TGI [16]: > 100 µM
TGI [17]: > 100 µM
TGI [18]: > 100 µM
TGI [19]: > 100 µM
TGI [20]: > 100 µM
TGI [21]: > 100 µM
TGI [22]: > 100 µM
TGI [23]: > 100 µM
TGI [24]: > 100 µM
TGI [25]: > 100 µM
TGI [26]: > 100 µM
TGI [27]: > 100 µM
TGI [28]: > 100 µM
TGI [29]: > 100 µM
TGI [30]: > 100 µM
TGI [31]: > 100 µM
TGI [32]: > 100 µM
TGI [33]: > 100 µM
TGI [34]: > 100 µM
TGI [35]: > 100 µM
TGI [36]: > 100 µM
TGI [37]: > 100 µM
TGI [38]: > 100 µM
TGI [39]: > 100 µM
TGI [40]: > 100 µM
TGI [41]: > 100 µM
TGI [42]: > 100 µM
TGI [43]: > 100 µM
TGI [44]: > 100 µM
TGI [45]: > 100 µM
TGI [46]: > 100 µM
TGI [47]: > 100 µM
TGI [48]: > 100 µM
TGI [49]: > 100 µM
TGI [50]: > 100 µM
TGI [51]: > 100 µM

COc1cc(S(=O)(=O)Nc2nc(-c3ccc(N4C(=O)/C(=C\c5cccs5)N=C4c4ccccc4)cc3)cs2)ccc1Cl
TGI [52]: > 100 µM
TGI [1]: > 100 µM
TGI [53]: > 100 µM
TGI [54]: 55.5 µM
TGI [2]: 63.9 µM
TGI [3]: > 100 µM
TGI [4]: > 100 µM
TGI [5]: > 100 µM
TGI [6]: > 100 µM
TGI [55]: > 100 µM
TGI [7]: 64.8 µM
TGI [8]: > 100 µM
TGI [9]: > 100 µM
TGI [10]: > 100 µM
TGI [11]: > 100 µM
TGI [12]: > 100 µM
TGI [13]: > 100 µM
TGI [14]: > 100 µM
TGI [15]: > 100 µM
TGI [16]: > 100 µM
TGI [17]: > 100 µM
TGI [18]: > 100 µM
TGI [19]: > 100 µM
TGI [20]: 83.8 µM
TGI [21]: > 100 µM
TGI [22]: > 100 µM
TGI [23]: > 100 µM
TGI [24]: > 100 µM
TGI [26]: > 100 µM
TGI [56]: > 100 µM
TGI [27]: > 100 µM
TGI [28]: > 100 µM
TGI [29]: > 100 µM
TGI [30]: > 100 µM
TGI [31]: > 100 µM
TGI [32]: 59 µM
TGI [33]: 83.4 µM
TGI [34]: > 100 µM
TGI [57]: > 100 µM
TGI [35]: > 100 µM
TGI [36]: > 100 µM
TGI [37]: > 100 µM
TGI [38]: > 100 µM
TGI [39]: > 100 µM
TGI [40]: > 100 µM
TGI [41]: > 100 µM
TGI [42]: 56.6 µM
TGI [43]: 89.8 µM
TGI [44]: > 100 µM
TGI [45]: > 100 µM
TGI [46]: > 100 µM
TGI [47]: > 100 µM
TGI [48]: > 100 µM
TGI [49]: 65.5 µM
TGI [50]: > 100 µM
TGI [51]: > 100 µM
